Results from doi:10.1101/2024.08.22.609123v2 (biorxiv, 2024).

Legend:
GPX4 (residues 28-197) = molecular target: T1, GPX4 (residues 28-197) (Homo sapiens, UniProt P36969); experiment: SPR; assay type: binding
T1 sequence (P36969 28-197): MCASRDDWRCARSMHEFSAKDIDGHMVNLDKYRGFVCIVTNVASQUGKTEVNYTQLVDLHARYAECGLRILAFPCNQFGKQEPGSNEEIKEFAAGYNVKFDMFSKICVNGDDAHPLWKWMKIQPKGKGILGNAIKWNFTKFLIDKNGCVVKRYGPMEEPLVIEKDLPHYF

GPX4 = molecular target: T2, GPX4 (Homo sapiens, UniProt P36969); experiment: coupled glutathione reductase / NADPH assay, […] nm; assay type: biochemical
T2 sequence (P36969 28-197): T1 sequence (P36969 28-197)

SMILES | Kd (GPX4 (residues 28-197)) | IC50 (GPX4)
Cc1ccc(C(=O)O)cc1-c1ccc(/C=C2\SC(=O)N(Cc3ccc(F)cc3)C2=O)o1 [DP021] | 1830 nM | 4.17 µM
COC(=O)c1ccc(C)c(-c2ccc(/C=C3\SC(=O)N(Cc4ccc(F)cc4)C3=O)o2)c1 [DP037] | – | > 100 µM
